# Data: patent publication US20030181434A1, “AlphaAED and betaAED regulation of nuclear transcription, gene regulation, and/or gene expression” (priority 2002, published 2003)
# Assays:
# [1] = tested on: COX-2; assay: Western blot of COX-2 level in Dunning R3327 AT-1 rat prostate tumors after treatment; type: in vivo; conditions: untreated control = 100 R.A.U.
# Excerpt: (§1) Dunning R3327, AT-1, rat prostate cancer, is a completely hormone-refractory tumor cell line. […] It lacks measurable quantities of receptor for androgens and estrogens. The clinical behavior of this tumor is not influenced by presence or absence of sex steroids (Isaacs et al, Prostate 9:261-281 (1986)).
# (§2) After an initial passage in young male rats, the tumor was implanted dorsally into young intact (not castrated) male Copenhagen-Fischer rats (Copenhagen, Denmark) of approximately 250 grams. Tumor transplants were allowed to grow until palpable and visible and reached a mean size of 10 mm in diameter prior to treatment. The vehicle for the drug was Polyethylene glycol 400 and ethanol 1:1. The drug was injected adjacent to the tumor. […]
# (§3) Thawed tumors were homogenized in ice cold lysis-buffer (160 mM NaCl, 10 mM […], 2 mM […], 0.5% Triton X-100, 100 μg/ml phenylmetylsulfonyl fluoride, 1 μg/ml leupeptin and 2 μg/ml aprotinin), placed on ice for 15 minutes and following clarification centrifuged for 10 minutes at 13,000 g. Protein content of homogenates were determined by Lowry assay Q.
# (§4) Protein in lysates ([…]) were separated by electrophoresis using 8% SDS-PAGE, the isolated proteins were transferred onto a nitrocellulose membrane (Amersham) in a trans-blot electrophoretic transfer cell (Bio-Rad Laboratories). […] Optical density was measured densitometrically. […]
# [2] = tested on: NF-κB
# Excerpt: as §1, §2, §3, §4
# [3] = tested on: PPARγ; assay: Western blot of PPARγ level in Dunning R3327 AT-1 rat prostate tumors after treatment; type: in vivo; conditions: untreated control = 100 R.A.U.
# Excerpt: as §1, §2, §3, §4
# [4] = AT-1 tumor samples, 96 hours after single 10 mg dose injected adjacent to tumor
# [5] = AT-1 tumor samples at 19 days, βAED single 80 mg dose, or αAED 10 mg then βAED 80 mg after 96 hours
SMILES,"COX-2 level, mean value [1, 4]","effect on levels of NF-κB (in words) ([2]; finding stated in the description, no value given)","PPARγ level, mean value [3, 4]","COX-2 level, mean value [1, 5]","NF-κB level, mean value ([2]; AT-1 tumor samples at 19 days after single 80 mg dose, untreated control = 100 R.A.U.)","PPARγ level, mean value [3, 5]"
"C[C@]12CC[C@H]3[C@@H](CC=C4C[C@@H](O)CC[C@@]43C)[C@@H]1CC[C@H]2O [αAED, Δ5-Androstene-3β, 17α-diol]",203 R.A.U.,increases,190 R.A.U.,,,
"C[C@]12CC[C@H]3[C@@H](CC=C4C[C@@H](O)CC[C@@]43C)[C@@H]1CC[C@@H]2O [βAED, Δ5-Androstene-3β, 17β-diol]",,,,135 R.A.U.,68±13.6 R.A.U.,47 R.A.U.
